This is an account of results in ChEMBL document CHEMBL5725996, “Heteroaryl substituted pyridyl compounds useful as kinase modulators” (2017).

As a reminder, the IC50 is the point on the concentration scale where inhibition reaches its midpoint.

In the experiment the target is T1, Interleukin-1 receptor-associated kinase 4 (Homo sapiens, UniProt Q9NWZ3).
T1 sequence (Q9NWZ3 whole entry): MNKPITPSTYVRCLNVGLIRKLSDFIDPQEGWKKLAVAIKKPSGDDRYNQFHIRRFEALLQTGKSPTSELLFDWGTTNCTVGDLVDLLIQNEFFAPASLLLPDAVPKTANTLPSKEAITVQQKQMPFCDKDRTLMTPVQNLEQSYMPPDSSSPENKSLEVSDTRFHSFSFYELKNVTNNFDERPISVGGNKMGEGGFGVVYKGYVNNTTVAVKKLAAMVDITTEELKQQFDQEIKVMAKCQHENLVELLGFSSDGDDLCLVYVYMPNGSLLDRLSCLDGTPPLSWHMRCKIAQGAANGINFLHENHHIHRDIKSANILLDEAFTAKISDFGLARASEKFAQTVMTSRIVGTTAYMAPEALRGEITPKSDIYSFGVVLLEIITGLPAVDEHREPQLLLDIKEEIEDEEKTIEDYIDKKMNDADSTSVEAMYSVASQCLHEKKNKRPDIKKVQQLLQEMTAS
Kind of experiment: Inhibition Assay: The assays were performed in U-bottom 384-well plates. […] The reaction was initiated by the combination of IRAK4 with substrates and test compounds. The reaction mixture was incubated at room temperature for 60 min. and terminated by adding 45 μL of 35 mM EDTA to each sample. […] The final concentrations of reagents in the assays are ATP, 500 μM; FL-[…] peptide 1.5 μM; IRAK4, 0.6 nM; and DMSO, 1.6%.

On to `CCNC(=O)[C@H]1CC[C@H](NC(=O)c2cnc(Nc3ncc(C#N)cc3F)cc2NC(C)C)CC1`, for which the IC50 was 9.4 nM. Turning to `CS[C@H]1CC[C@H](NC(=O)c2cnc(Nc3ncc(C#N)cc3F)cc2NC(C)C)CC1`, the IC50 amounted to 12.5 nM. For the compound `CC(C)(O)CNc1cc(Nc2ncc(C#N)cc2Cl)ncc1C(=O)NC[C@@H](F)C(C)(C)O`, the IC50 stood at 9.3 nM. On to `CC(C)(O)[C@H](F)CNC(=O)c1cnc(Nc2ncncc2Cl)cc1NC1CC1`, for which the IC50 is 5.5 nM. `CC(C)Nc1cc(Nc2nc(OC3CCNCC3)ncc2Cl)ncc1C(=O)NC[C@@H](F)C(C)(C)O`: the IC50 turned out to be 19.9 nM. Turning to `COC[C@H](F)CNC(=O)c1cnc(Nc2ncc(C#N)cc2F)cc1NC(C)C`, the IC50 was determined as 12.6 nM. Next, `CC(C)Nc1cc(Nc2ccc(C#N)cn2)ncc1C(=O)NC1CCC(O)(c2ccnn2C)CC1` (stereo unspecified): 4.6 nM. With `CC(C)Nc1cc(Nc2ncc(C#N)cc2Cl)ncc1C(=O)NC1CCC(C(C)(C)O)CC1` (stereo unspecified), the IC50 was 4.1 nM. With `CC(=O)N[C@H]1CC[C@H](NC(=O)c2cnc(Nc3ncncc3Cl)cc2NC(C)C)CC1`, the IC50 was 16.8 nM. Consider `CC(C)(O)[C@H](F)CNC(=O)c1cnc(Nc2ncc(C#N)cc2Cl)cc1NC1CCOCC1`, for which the IC50 is 2.1 nM. As for `CNC(=O)[C@H]1CC[C@H](NC(=O)c2cnc(Nc3ccc(C#N)cn3)cc2NC(C)C)CC1`, the IC50 is 5.6 nM.
